In patent publication US9108957B2 (MITSUBISHI TANABE PHARMA CORPORATION, priority 2009, dated 2015) one finds IC50 data, which are given here for 33 compounds.

The assay deals with human recombinant TPK1 (Homo sapiens, UniProt P49841). As to the kind of experiment: Inhibitory activity against P-GS1 phosphorylation by TPK1 (Kinase Glo luminescence). To be noted: 7.5 μM P-GS1, 10 μM ATP, 25° C. for 16 hours, Kinase Glo Reagent luminescent signal. In kind it is biochemical. The method, then:
Inhibitory Activity of the Medicament of the Present Invention Against P-GS1 Phosphorylation by Bovine Cerebral TPK1
A mixture containing 100 mM HEPES-sodium hydroxide (pH 7.2), 1 mM magnesium acetate, 1 mM EGTA, 1 mM dithiothreitol (DTT), 0.02% Tween 20, 7.5 μM P-GS1, 10 μM ATP, human recombinant TPK1 and a compound shown in Table (a final mixture contained 1% DMSO deriving from a solution of a test compound prepared in the presence of 10% DMSO) was used as a reaction system. The phosphorylation was started by adding ATP, and the reaction was conducted at 25° C. for 16 hours. Then equal volume of Kinase Glo Reagent (Promega) was added to the mixture and luminescent signal from the mixture was measured. IC50 for each compound was calculated by setting the data of mixture without enzyme as 0% activity and that without compound as 100% activity.
A general note: In Kinase-Glo more light means more ATP remaining.

Structures are written as SMILES.

Sequence of human recombinant TPK1 (P49841 whole entry): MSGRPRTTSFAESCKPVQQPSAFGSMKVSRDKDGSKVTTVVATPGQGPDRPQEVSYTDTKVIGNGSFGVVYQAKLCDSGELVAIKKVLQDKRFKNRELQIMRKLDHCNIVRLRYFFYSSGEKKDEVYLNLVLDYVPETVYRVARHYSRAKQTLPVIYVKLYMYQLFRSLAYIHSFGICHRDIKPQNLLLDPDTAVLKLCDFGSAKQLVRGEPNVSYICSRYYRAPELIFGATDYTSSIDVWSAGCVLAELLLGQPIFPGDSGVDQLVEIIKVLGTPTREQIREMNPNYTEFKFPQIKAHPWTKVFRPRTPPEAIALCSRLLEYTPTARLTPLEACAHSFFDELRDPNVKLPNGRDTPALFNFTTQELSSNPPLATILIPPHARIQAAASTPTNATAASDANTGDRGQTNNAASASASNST

As usually defined, the IC50 is the concentration that gives 50% inhibition. For the compound `CC1COCCN(c2nc(-c3ccncn3)cc(=O)n2C)C1` (stereo not drawn) [Compound A087, 2-(6-methyl-1,4-oxazepan-4-yl)-3-methyl-6-(pyrimidin-4-yl)pyrimidin-4(3H)-one], the IC50 is 80.1 nM.

In the case of `Cn1c(N2CCCO[C@@H](c3ccc(C(N)=O)cc3)C2)nc(-c2ccncn2)cc1=O` [Compound A018], the IC50 is 11 nM.

As to `Cc1noc(-c2cccc([C@H]3CN(c4nc(-c5ccncn5)cc(=O)n4C)CCCO3)c2)n1` [Compound A045, (S)-2-[2-[3-(3-methyl-1,2,4-oxadiazol-5-yl)phenyl]-1,4-oxazepan-4-yl]-3-methyl-6-(pyrimidin-4-yl)pyrimidin-4(3H)-one], the IC50 was 57.1 nM. Next, `Cn1c(N2CCCO[C@@H](c3cccc(C(N)=O)c3)C2)nc(-c2ccncn2)cc1=O` [Compound A015, (S)-2-[2-(3-aminocarbonylphenyl)-1,4-oxazepan-4-yl]-3-methyl-6-(pyrimidin-4-yl)pyrimidin-4(3H)-one]: 9.3 nM; `Cn1c(N2CCCO[C@@H](c3ccc(C(N)=O)cc3)C2)nc(-c2ccncc2)cc1=O` [Compound A017, (S)-2-[2-(4-aminocarbonylphenyl)-1,4-oxazepan-4-yl]-3-methyl-6-(pyridin-4-yl)pyrimidin-4(3H)-one]: 11 nM; `Cn1c(N2CCCO[C@@H](c3cccc(Br)c3)C2)nc(-c2ccncc2)cc1=O` [Compound A024, (S)-2-[2-(3-bromophenyl)-1,4-oxazepan-4-yl]-3-methyl-6-(pyridin-4-yl)pyrimidin-4(3H)-one]: 13 nM. Next, `Cn1c(N2CCOC(c3cccc(F)c3)CC2)nc(-c2ccncn2)cc1=O` (stereo not drawn) [Compound A106, 2-[7-(3-fluorophenyl)-1,4-oxazepan-4-yl]-3-methyl-6-(pyrimidin-4-yl)pyrimidin-4(3H)-one]: 20.5 nM.

As for `Cn1c(N2CCCN(c3ccc(F)cc3)CC2)nc(-c2ccncc2F)cc1=O` [Compound A003, 2-[4-(4-fluorophenyl)-1,4-diazepan-1-yl]-6-(3-fluoropyridin-4-yl)-3-methylpyrimidin-4(3H)-one], the concentration for half-maximal inhibition (IC50) came out at 18.4 nM. Next, `Cn1c(N2CCCO[C@@H](c3cccc(C#N)c3)C2)nc(-c2ccncc2)cc1=O` [Compound A046, (S)-2-[2-(3-cyanophenyl)-1,4-oxazepan-4-yl]-3-methyl-6-(pyridin-4-yl)pyrimidin-4(3H)-one]: 61.5 nM; `Cn1c(N2CCOCC(c3ccc(-c4ncon4)cc3)C2)nc(-c2ccncc2F)cc1=O` (stereo not drawn) [Compound A078, 2-[6-[4-(1,2,4-oxadiazol-3-yl)-phenyl]-1,4-oxazepan-4-yl]-6-(3-fluoropyridin-4-yl)-3-methylpyrimidin-4(3H)-one]: 7.1 nM.

For the compound `Cn1c(N2CCOC(c3ccc(F)cc3)CC2)nc(-c2ccncc2F)cc1=O` (stereo not drawn) [Compound A108, 2-[7-(4-fluorophenyl)-1,4-oxazepan-4-yl]-6-(3-fluoropyridin-4-yl)-3-methylpyrimidin-4(3H)-one], the IC50 was determined as 24.6 nM. `Cc1noc(-c2ccc([C@H]3CN(c4nc(-c5ccncc5F)cc(=O)n4C)CCCO3)cc2)n1` [Compound A019, (S)-2-[2-[4-(3-methyl-1,2,4-oxadiazol-5-yl)-phenyl]-1,4-oxazepan-4-yl]-6-(3-fluoropyridin-4-yl)-3-methylpyrimidin-4(3H)-one]: the IC50 amounted to 11.1 nM. On to `Cn1c(N2CCCO[C@H](c3ccc(Br)cc3)C2)nc(-c2ccncn2)cc1=O` [Compound A058, (R)-2-(2-(4-bromophenyl)-1,4-oxazepan-4-yl)-3-methyl-6-(pyrimidin-4-yl)pyrimidin-4(3H)-one], for which the IC50 stood at 221 nM. Next, `Cn1c(N2CCCO[C@H](c3cccc(C(N)=O)c3)C2)nc(-c2ccncc2F)cc1=O` [Compound A029]: 18.8 nM; `Cn1c(N2CCOC(c3ccc(Br)cc3)CC2)nc(-c2ccncn2)cc1=O` (single isomer, unassigned; (-)) [Compound A122, (−)-2-(7-(4-bromophenyl)-1,4-oxazepan-4-yl)-3-methyl-6-(pyrimidin-4-yl)pyrimidin-4(3H)-one]: 114 nM; `Cn1c(N2CCCOC(c3ccccc3)C2)nc(-c2ccncc2)cc1=O` (stereo not drawn) [Compound A040, 2-(2-phenyl-1,4-oxazepan-4-yl)-3-methyl-6-(pyridin-4-yl)pyrimidin-4(3H)-one]: 32.7 nM. Next, `Cn1c(N2CCOC(c3ccc(-c4ncno4)cc3)CC2)nc(-c2ccncn2)cc1=O` (single isomer, unassigned; (+)) [Compound A107, (+)-2-[7-[4-(1,2,4-oxadiazol-5-yl)-phenyl]-1,4-oxazepan-4-yl]-3-methyl-6-(pyrimidin-4-yl)pyrimidin-4(3H)-one]: 23 nM; `Cn1c(N2CCCO[C@@H](c3ccc(Br)cc3)C2)nc(-c2ccncc2F)cc1=O` [Compound A010, (S)-2-[2-(4-bromophenyl)-1,4-oxazepan-4-yl]-6-(3-fluoropyridin-4-yl)-3-methylpyrimidin-4(3H)-one]: 5.5 nM. Consider `Cc1noc(-c2cccc([C@@H]3CN(c4nc(-c5ccncc5F)cc(=O)n4C)CCCO3)c2)n1` [Compound A059, (R)-2-[2-[3-(3-methyl-1,2,4-oxadiazol-5-yl)-phenyl]-1,4-oxazepan-4-yl]-6-(3-fluoropyridin-4-yl)-3-methylpyrimidin-4(3H)-one], for which the IC50 was 241 nM.

As for `Cc1nc(-c2ccc([C@H]3CN(c4nc(-c5ccncc5)cc(=O)n4C)CCCO3)cc2)no1` [Compound A050, (S)-2-[2-[4-(5-methyl-[1,2,4]oxadiazol-3-yl)-phenyl]-1,4-oxazepan-4-yl]-3-methyl-6-(pyridin-4-yl)pyrimidin-4(3H)-one], the IC50 turned out to be 77.4 nM. On to `CCC1CCOCCN1c1nc(-c2ccncc2F)cc(=O)n1C` (stereo not drawn) [Compound A072, 6-(3-fluoropyridin-4-yl)-3-methyl-2-(5-ethyl-1,4-oxazepan-4-yl)pyrimidin-4(3H)-one], for which the IC50 was determined as 65 nM. On to `COc1ccc(C2CCN(c3nc(-c4ccncc4)cc(=O)n3C)CCO2)cc1` (stereo not drawn) [Compound A118, 2-(7-(4-methoxyphenyl)-1,4-oxazepan-4-yl)-3-methyl-6-(pyridin-4-yl)pyrimidin-4(3H)-one], for which the IC50 came to 58.6 nM. Next, `Cc1noc(-c2ccc(C3CCN(c4nc(-c5ccncn5)cc(=O)n4C)CCO3)cc2)n1` (single isomer, unassigned; (-)) [Compound A121, (−)-2-[7-[4-(3-methyl-1,2,4-oxadiazol-5-yl)-phenyl]-1,4-oxazepan-4-yl]-3-methyl-6-(pyrimidin-4-yl)pyrimidin-4(3H)-one]: 83.4 nM. Next, `COc1ccccc1C1CCN(c2nc(-c3ccncc3F)cc(=O)n2C)CCO1` (stereo not drawn) [Compound A094, 2-[7-(2-methoxyphenyl)-1,4-oxazepan-4-yl]-6-(3-fluoropyridin-4-yl)-3-methylpyrimidin-4(3H)-one]: 10.3 nM; `Cc1noc(-c2ccc(C3COCCN(c4nc(-c5ccncn5)cc(=O)n4C)C3)cc2)n1` (stereo not drawn) [Compound A081, 2-[6-[4-(3-methyl-1,2,4-oxadiazol-5-yl)-phenyl]-1,4-oxazepan-4-yl]-3-methyl-6-(pyrimidin-4-yl)pyrimidin-4(3H)-one]: 12.9 nM; `CCC1CCOCCN1c1nc(-c2ccncn2)cc(=O)n1C` (stereo not drawn) [Compound A073, 3-methyl-2-(5-ethyl-1,4-oxazepan-4-yl)-6-(pyrimidin-4-yl)pyrimidin-4(3H)-one]: 195 nM. Next, `Cn1c(N2CCCO[C@H](c3ccc(C(N)=O)cc3)C2)nc(-c2ccncc2)cc1=O` [Compound A062, (R)-2-[2-(4-aminocarbonylphenyl)-1,4-oxazepan-4-yl]-3-methyl-6-(pyridin-4-yl)pyrimidin-4(3H)-one]: 809 nM. In the case of `C[C@@H]1COCCCN1c1nc(-c2ccncn2)cc(=O)n1C` [Compound A064, (R)-3-methyl-2-(3-methyl-1,4-oxazepan-4-yl)-6-(pyrimidin-4-yl)pyrimidin-4(3H)-one], the IC50 was determined as 23.2 nM.

As to `Cn1c(N2CCCO[C@H](c3ccc(F)cc3)C2)nc(-c2ccncc2F)cc1=O` [Compound A054, (R)-2-[2-(4-fluorophenyl)-1,4-oxazepan-4-yl]-6-(3-fluoropyridin-4-yl)-3-methylpyrimidin-4(3H)-one], the IC50 came to 111 nM.

On to `Cc1nc(-c2cccc([C@H]3CN(c4nc(-c5ccncc5)cc(=O)n4C)CCCO3)c2)no1` [Compound A042, (S)-2-[2-[3-(5-methyl-1,2,4-oxadiazol-3-yl)-phenyl]-1,4-oxazepan-4-yl]-3-methyl-6-(pyridin-4-yl)pyrimidin-4(3H)-one], for which the IC50 came out at 44.6 nM. Consider `Cn1c(N2CCOC(c3ccc(Br)cc3)CC2)nc(-c2ccncc2)cc1=O` (single isomer, unassigned; (+)) [Compound A119, (+)-2-[7-(4-bromophenyl)-1,4-oxazepan-4-yl]-3-methyl-6-(pyridin-4-yl)pyrimidin-4(3H)-one], for which the IC50 stood at 72.2 nM.

`Cn1c(N2CCOC(c3ccc(-c4ncon4)cc3)CC2)nc(-c2ccncn2)cc1=O` (single isomer, unassigned; (-)) [Compound A111, (−)-2-[7-[4-(1,2,4-oxadiazol-3-yl)-phenyl]-1,4-oxazepan-4-yl]-3-methyl-6-(pyrimidin-4-yl)pyrimidin-4(3H)-one]: the IC50 came to 29.5 nM. Consider `Cc1nc(-c2ccc(C3CCN(c4nc(-c5ccncc5F)cc(=O)n4C)CCO3)cc2)no1` (single isomer, unassigned; (-)) [Compound A097, (−)-2-[7-[4-(5-methyl-1,2,4-oxadiazol-3-yl)-phenyl]-1,4-oxazepan-4-yl]-6-(3-fluoropyridin-4-yl)-3-methylpyrimidin-4(3H)-one], for which the IC50 was 11.3 nM.
